“Also recorded” adds a separate entry of the source. Like-named read-outs stand apart in the source and are kept apart here.
Assays:
[1] = tested on: Ishikawa (WT) endometrial tumor cells; assay: CyQUANT proliferation assay; assay type: cell-based; design: key to IC50 proliferation Ishikawa (WT): NE—Not efficacious; settings: for IC50: Homo sapiens, Ishikawa
Procedure: (§1) Madine Darby Canine Kidney epithelial cells (MDCK) stably co-expressing mGFP-tagged full length oncogenic mutant K-Ras (GFP—K-RASG12V) or mGFP-LactC2 (peptide probe for phosphatidylserine) and mCherry-tagged to the amino acids 179-189 of H-RasC181S, C184S (mCherry-CAAX, localizes primarily to endomembranes) were grown in DMEM-high glucose/sodium pyruvate/10% FBS. The medium was supplemented with 1× Penicillin/Streptomycin for fluorescence microscopy assays, to avoid any microbial contamination from the test compounds added. KLE and Hec50 cells were maintained in DMEM-F-12 medium supplemented with 10% FBS. Hec-1A and Hec-1B cells were grown in McCoy's 5a medium supplemented with 10% FBS. ESS-1 cells were grown in RPMI 1640 medium supplemented with 20% FBS. MPanc96 cells were grown in DMEM supplemented with 10% FBS, MiaPaCa-2 cells in DMEM supplemented with 10% FBS and 2.5% horse serum and all other cell lines were grown in RPMI 1640 supplemented with 10% FBS. All cancer cell media were supplemented with ×Penicillin/Streptomycin. All cell lines were grown at 37° C. with 5% CO2.
(§2) Cells were seeded in 96-well plates. After 24 h, fresh growth medium supplemented with 0.1% vehicle (DMSO), or various concentrations of drugs was added and cells were grown for 72 h. Cell numbers were quantified using the CyQUANT® Cell Proliferation Assay Kit (Molecular Probes, Life Technologies), according to the manufacturer's protocol. Fluorescence measurement was used as a measure of live cell number.

[2] = tested on: MPanc96 (Mut) pancreatic tumor cells; assay: CyQUANT proliferation assay; assay type: cell-based
Procedure: as §1, §2

MiaPaCa-2 tumors = assay: In vivo tumor growth assay (xenograft); design: species or system nu/nu mice; settings: for growth of MiaPaCa-2 xenografts: intraperitoneally, once daily 5 days on / 2 days off, doses 1-12.5 mg/kg; for minimum effective dose on tumor growth relative to fendiline: MiaPaCa2 xenografts in nude mice
Procedure: In Vivo Tumor Growth Assay. All animal studies were performed under an Institutional Animal Care and Use Committee (IACUC) approved animal protocol (AWC-15-0101), in accordance with the National Institutes of Health Guide for the Care and Use of Laboratory Animals. Early passage MiaPaCa-2 cells were harvested, and 2×10^6 cells were implanted into the right flanks of female nu/nu mice. The animals were randomized into control and treated groups (10 mice per group). Tumor volume (V) was measured with an external caliper every 3-4 days and it was calculated as V=0.52 (length×width2). Compound treatment was initiated when the tumor sizes reached 100 mm3. Compounds (12.5 mg/kg) were injected daily intraperitoneally for 5 days, with 2 days of no treatment in between. All treatments were continued until any of the subcutaneous tumors reached 1500 mm3 in volume, when all the animals were sacrificed, and the tumors removed.
Early passage BxPC-3 or MIAPaCa-2 cells were harvested, and 2-3X106 cells were implanted into the right flanks of nu/nu mice. The animals were randomized into control and treated groups (10 mice per group). Tumor volume (V) was measured with an external caliper every 3-4 days and it was calculated as V=0.52 (length×width2). Drug treatment was initiated 4 days after tumor implantation. Drugs were injected daily intraperitoneally (at doses indicated) for 5 days, with 2 days of no treatment in between. All treatments were continued until any of the subcutaneous tumors reached 1500 mm3 in volume or for 6 weeks (whichever was first), when all the animals were sacrificed and the tumors removed.
Next the effect of the selected PMLIs on the growth of oncogenic KRAS expressing MiaPaCa-2 cells implanted subcutaneously into the flanks of nu/nu immunosuppressed mice was determined. […] The animals were randomized into control and PMLI-treated groups (10 mice per group). Treatment was initiated when the tumors reached a mean volume of 100 mm^3. PMLIs were tested at 12.5, 7.5, 5, 2.5 and 1 mg/kg doses, administered once daily intraperitoneally for 5 days, with 2 days of no treatment in between for the duration of the experiment. […] There was no observed toxicity detected in any of the compound-treated groups during the experiment and, accordingly, there was no significant difference in the body weight of the animals in the different groups.

[3] = tested on: MiaPaCa-2 (Mut) pancreatic tumor cells; assay: CyQUANT proliferation assay; assay type: cell-based; settings: Homo sapiens
Procedure: as §1, §2

[4] = tested on: NCI H1975 (WT) lung tumor cells; assay: CyQUANT proliferation assay; assay type: cell-based; design: key to IC50 proliferation NCI H1975 (WT): NE—Not efficacious; settings: for IC50 proliferation NCI H1975 (WT): 72 h; for IC50: Homo sapiens, NCI-H1975, Table 11, lung
Procedure: as §1, §2

[5] = tested on: sphingomyelin (SM) in MiaPaCa-2 tumor sections; assay: Lysenin (GFP-Lys) staining of tumor sections; assay type: in vivo, nu/nu mice; settings: 12.5 mg/kg
Procedure: Lysenin Staining of Tumor Sections. To label intracellular SM, 3 μm thick cryosections, fixed in 4% paraformaldehyde and quenched in 0.1 M NH4Cl, were permeabilized with 0.5% saponin before overnight incubation (4° C.) with MBP-GFP Lysenin (50 μg/mL) in PBS with 0.5% saponin containing DAPI (5 ng/mL). Samples mounted in FluorSave were photographed in the Nikon AIR Confocal Laser Microscope. GFP-Lysenin binding was quantitated using NIS
Elements BR analysis ver. 4.13.04. The average value obtained in the negative control pictures (background) was subtracted from each of the GFP pictures (n=20).
To determine if the reduction in tumor growth elicited by the compounds were mediated by inhibition of ASM, we stained the tissue sections for SM using a non-toxic recombinant fragment of lysenin tagged with GFP (GFP-Lys). In DMSO-treated tumor sections, weak GFP-Lys staining was observed. […] We also observed that the blood vessels were dilated in compound 6 treated tumors, whereas the blood vessel diameters were not changed in compound 12h (NY0331) and 22 (NY0335) treated tumors (FIG. 8E).

[6] = tested on: MDCK cells co-expressing GFP-K-RASG12V and mCherry-CAAX; assay: Cytotoxicity in mislocalization screen (death of all cells in well); settings: drug caused death of all cells in well at 30 μM
[7] = tested on: HPAC (Mut) pancreatic tumor cells; assay: CyQUANT proliferation assay; assay type: cell-based; settings: Homo sapiens, HPAC, 72 h
Procedure: as §1, §2

[8] = Table 11, endometrial, read-out: IC50 (μM) Ishikawa (WT)
[9] = MPANC96, 72 h, read-out: IC50 proliferation MPanc96 (Mut)
[10] = MPANC96, Table 11, pancreatic, read-out: IC50 (μM) MPanc96 (Mut)
[11] = MIA PaCa-2, 72 h, read-out: IC50 proliferation MiaPaCa-2 (Mut)
[12] = MIA PaCa-2, Table 11, pancreatic, read-out: IC50 (μM) MiaPaCa-2 (Mut)

Compound | IC50 proliferation Ishikawa (WT) ([1]; 72 h) | IC50 [1, 8] [µM] | IC50 [2, 9] [µM] | IC50 [2, 10] [µM] | MiaPaCa2 xenograft size (MiaPaCa-2 tumors; 12.5 mg/kg intraperitoneally, days 28, 32 and 35) | growth of MiaPaCa-2 xenografts (MiaPaCa-2 tumors) | IC50 [3, 11] [µM] | IC50 [3, 12] [µM] | IC50 proliferation NCI H1975 (WT) [4] | IC50 [4] [µM] | GFP-Lys staining (SM) of tumor sections [5] | Cytotoxic at 30 μM [6] | tumor growth at 1 mg/kg (MiaPaCa-2 tumors; 1 mg/kg intraperitoneally) | minimum effective dose on tumor growth relative to fendiline (MiaPaCa-2 tumors) | growth of MiaPaCa-2 xenografts (MiaPaCa-2 tumors; listed as 12h) | IC50 [7] [µM] | IC50 ([1]; 72 h, read-out: IC50 proliferation Ishikawa (WT)) [µM] | growth of MiaPaCa-2 xenografts (MiaPaCa-2 tumors; listed as 22)
CC(NCCC(c1ccccc1)c1ccccc1)c1ccccc1 (centres unmarked) [Fendiline] | NE | > 30 | 10.8 | 10.8 | significantly smaller | inhibits the growth | 9.17 | 9.2 ± 0.6 | NE | > 30 | significantly increased |  |  |  |  |  |  | 
COc1ccc([C@@H](C)N(CC=C(c2ccccc2)c2ccccc2)CCN2CCCC2)cc1 [NY0331, (R)-N-(1-(4-methoxyphenyl)ethyl)-3,3-diphenyl-N-(2-(pyrrolidin-1-yl)ethyl)prop-2-en-1-amine] |  |  | 3.81 | 3.8 |  |  | 3.36 | 3.1 |  |  | significantly increased | Yes | significantly inhibited tumor growth | more potent than fendiline | suppressed; also recorded: strikingly decreased the rate of growth | 5.15 |  | 
COc1ccc([C@@H](C)N(CC=C(c2ccccc2)c2ccccc2)CCCN2CCN(C)CC2)cc1 [NY0335, (R)-N-(1-(4-methoxyphenyl)ethyl)-N-(3-(4-methylpiperazin-1-yl)propyl)-3,3-diphenylprop-2-en-1-amine] |  | 11 | 4.18 | 4.2 |  |  | 2.79 | 2.8 | NE | > 30 | did not enhance GFP-Lys staining | Yes |  |  |  | 5.81 | 11 | suppressed; also recorded: strikingly decreased the rate of growth
COc1ccc([C@@H](C)N(CC=C(c2ccccc2)c2ccccc2)CCN2CCN(C)CC2)cc1 [NY0244, (R)-N-(1-(4-methoxyphenyl)ethyl)-N-(2-(4-methylpiperazin-1-yl)ethyl)-3,3-diphenylprop-2-en-1-amine] | NE | > 30 | 4.22 | 4.2 |  |  | 3.03 | 3 | NE | > 30 |  | Yes |  | more potent than fendiline |  | 5.55 |  | 

Reference: patent publication US12043602B2, “Fendiline derivatives” (The Board of Regents of the University of Texas System, priority 2019, dated 2024)
